Structures can show the parent of a compound that is named as a salt.
Target: YKL-40 (YKL-40-histag, chitin binding site) (Homo sapiens (Human), UniProt P36222)
Assay: YKL-40:4 assay, competitive chitin binding site AlphaScreen
Conditions: not given

Chain of YKL-40 (YKL-40-histag, chitin binding site) (P36222 22-383): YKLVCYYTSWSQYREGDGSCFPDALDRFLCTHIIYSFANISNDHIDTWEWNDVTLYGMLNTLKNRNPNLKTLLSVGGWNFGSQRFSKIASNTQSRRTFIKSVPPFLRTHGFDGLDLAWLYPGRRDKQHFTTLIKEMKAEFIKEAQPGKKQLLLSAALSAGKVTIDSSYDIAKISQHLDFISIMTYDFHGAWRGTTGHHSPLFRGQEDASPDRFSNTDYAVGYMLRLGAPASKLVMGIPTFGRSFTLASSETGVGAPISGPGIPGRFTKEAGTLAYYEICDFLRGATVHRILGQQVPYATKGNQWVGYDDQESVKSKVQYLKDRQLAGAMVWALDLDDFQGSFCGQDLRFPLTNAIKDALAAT

Structure (SMILES) | IC50
C[C@H]1CN(C2CCN(c3cc(Cl)ccc3C#N)CC2)[C@@H](Cc2ccc(Cl)cc2)CO1 [Compound 115, 4-chloro-2-(4-((2S,5S)-5-(4-chlorobenzyl)-2-methylmorpholino)piperidin-1-yl)benzonitrile 2,2,2-trifluoroacetate] | > 10 µM
C[C@H]1CN(C2CCN(c3nncs3)CC2)[C@@H](Cc2ccc(Cl)cc2)CO1 [Compound 181, (2S,5S)-4-(1-(1,3,4-thiadiazol-2-yl)piperidin-4-yl)-5-(4-chlorobenzyl)-2-methylmorpholine 2,2,2-trifluoroacetate] | > 10 µM
C[C@H]1CN(C2CCN(c3ccc(C#N)cn3)CC2)[C@@H](Cc2ccc(Cl)cc2)CO1 [Example 19, 6-(4-((2S,5S)-5-(4-chlorobenzyl)-2-methylmorpholino)piperidin-1-yl)nicotinonitrile 2,2,2-trifluoroacetate] | > 10 µM
O=C1NCCN(C2CCN(c3ccccn3)CC2)[C@H]1Cc1ccc(Cl)cc1 [Compound 149, (S)-3-(4-chlorobenzyl)-4-(1-(pyridin-2-yl)piperidin-4-yl)piperazin-2-one 2,2,2-trifluoroacetate] | > 10 µM
C[C@H]1CN(C2CCN(c3cc(C(=O)O)ccn3)CC2)[C@@H](Cc2ccc(Cl)cc2)CO1 [Compound 125, 2-(4-((2S,5S)-5-(4-chlorobenzyl)-2-methylmorpholino)piperidin-1-yl)isonicotinic acid 2,2,2-trifluoroacetate] | > 10 µM
C[C@H]1CN(C2CCN(c3ncns3)CC2)[C@@H](Cc2ccc(Cl)cc2)CO1 [Compound 179, (2S,5S)-4-(1-(1,2,4-thiadiazol-5-yl)piperidin-4-yl)-5-(4-chlorobenzyl)-2-methylmorpholine 2,2,2-trifluoroacetate] | > 10 µM
C[C@H]1CN(C2CCN(c3ncnc(N)n3)CC2)[C@@H](Cc2ccc(Cl)cc2)CO1 [Compound 174, 4-(4-((2S,5S)-5-(4-chlorobenzyl)-2-methylmorpholino)piperidin-1-yl)-1,3,5-triazin-2-amine 2,2,2-trifluoroacetate] | > 10 µM
C[C@H]1CN(C2CCN(c3nccc(C(=O)O)c3F)CC2)[C@@H](Cc2ccc(Cl)cc2)CO1 [Compound 128, 2-(4-((2S,5S)-5-(4-chlorobenzyl)-2-methylmorpholino)piperidin-1-yl)-3-fluoroisonicotinic acid 2,2,2-trifluoroacetate] | > 10 µM
Cc1nnc(N2CCC(N3C[C@H](C)OC[C@@H]3Cc3ccc(Cl)cc3)CC2)s1 [Compound 182, (2S,5S)-5-(4-chlorobenzyl)-2-methyl-4-(1-(5-methyl-1,3,4-thiadiazol-2-yl)piperidin-4-yl)morpholine 2,2,2-trifluoroacetate] | > 10 µM
C[C@H]1CN(C2CCN(c3noc(C(F)(F)F)n3)CC2)[C@@H](Cc2ccc(Cl)cc2)CO1 [Compound 164, (2S,5S)-5-(4-chlorobenzyl)-2-methyl-4-(1-(5-(trifluoromethyl)-1,2,4-oxadiazol-3-yl)piperidin-4-yl)morpholine 2,2,2-trifluoroacetate] | > 10 µM
C[C@H]1CN(C2CCN(c3cccc(C#N)n3)CC2)[C@@H](Cc2ccc(Cl)cc2)CO1 [Example 18, 6-(4-((2S,5S)-5-(4-chlorobenzyl)-2-methylmorpholino)piperidin-1-yl)picolinonitrile 2,2,2-trifluoroacetate] | > 10 µM
C[C@H]1CN(C2CCN(c3ncccc3O)CC2)[C@@H](Cc2ccc(Cl)cc2)CO1 [Compound 160, 2-(4-((2S,5S)-5-(4-chlorobenzyl)-2-methylmorpholino)piperidin-1-yl)pyridin-3-ol 2,2,2-trifluoroacetate] | > 10 µM
C[C@H]1CN(C2CCN(c3c(F)cccc3F)CC2)[C@@H](Cc2ccc(Cl)cc2)CO1 [Compound 123, (2S,5S)-5-(4-chlorobenzyl)-4-(1-(2,6-difluorophenyl)piperidin-4-yl)-2-methylmorpholine 2,2,2-trifluoroacetate] | > 10 µM
CC(C)c1nc(N2CCC(N3C[C@H](C)OC[C@@H]3Cc3ccc(Cl)cc3)CC2)no1 [Compound 163, (2S,5S)-5-(4-chlorobenzyl)-4-(1-(5-isopropyl-1,2,4-oxadiazol-3-yl)piperidin-4-yl)-2-methylmorpholine 2,2,2-trifluoroacetate] | > 10 µM
COc1ncnc(N2CCC(N3C[C@H](C)OC[C@@H]3Cc3ccc(Cl)cc3)CC2)n1 [Compound 171, (2S,5S)-5-(4-chlorobenzyl)-4-(1-(4-methoxy-1,3,5-triazin-2-yl)piperidin-4-yl)-2-methylmorpholine 2,2,2-trifluoroacetate] | > 10 µM
C[C@H]1CN(C2CCN(c3cc(CO)ccn3)CC2)[C@@H](Cc2ccc(Cl)cc2)CO1 [Compound 130, (2-(4-((2S,5S)-5-(4-chlorobenzyl)-2-methylmorpholino)piperidin-1-yl)pyridin-4-yl)methanol 2,2,2-trifluoroacetate] | > 10 µM
C[C@H]1CN(C2CCN(c3ccccc3F)CC2)[C@@H](Cc2ccc(Cl)cc2)CO1 [Compound 126, (2S,5S)-5-(4-chlorobenzyl)-4-(1-(2-fluorophenyl)piperidin-4-yl)-2-methylmorpholine 2,2,2-trifluoroacetate] | > 10 µM
C[C@H]1CN(C2CCN(c3ncc(C(F)(F)F)o3)CC2)[C@@H](Cc2ccc(Cl)cc2)CO1 [Compound 168, (2S,5S)-5-(4-chlorobenzyl)-2-methyl-4-(1-(5-(trifluoromethyl)oxazol-2-yl)piperidin-4-yl)morpholine 2,2,2-trifluoroacetate] | > 10 µM
C[C@H]1CN(C2CCN(c3ccnc(N)n3)CC2)[C@@H](Cc2ccc(Cl)cc2)CO1 [Compound 67, 4-(4-((2S,5S)-5-(4-chlorobenzyl)-2-methylmorpholino)piperidin-1-yl)pyrimidin-2-amine 2,2,2-trifluoroacetate] | > 10 µM
C[C@H]1CN(C2CCN(C(=O)OC(C)(C)C)CC2)[C@@H](Cc2ccc(Cl)cc2)CO1 [Compound 8d, tert-butyl 4-((2S,5S)-5-(4-chlorobenzyl)-2-methylmorpholino)piperidine-1-carboxylate] | > 10 µM

Same assay, conditions: competition with biotinylated compound 4, 20 nM; YKL-40-histag 2.5 nM; read-out: YKL-40:4, IC50/Kd (IC50 range)

Structure (SMILES) | IC50
C[C@H]1CN(C2CCN(c3cc(C(F)(F)F)ncn3)CC2)[C@@H](Cc2ccc(Cl)cc2)CO1 [Compound 145, (2S,5S)-5-(4-chlorobenzyl)-2-methyl-4-(1-(6-(trifluoromethyl)pyrimidin-4-yl)piperidin-4-yl)morpholine hydrochloride] | > 10 µM
C[C@H]1CN(C2CCN(c3ccnc(Cl)n3)CC2)[C@@H](Cc2ccc(Cl)cc2)CO1 [Compound 66, (2S,5S)-5-(4-chlorobenzyl)-4-(1-(2-chloropyrimidin-4-yl)piperidin-4-yl)-2-methylmorpholine] | > 10 µM
COC(=O)c1ccnc(F)c1N1CCC(N2C[C@H](C)OC[C@@H]2Cc2ccc(Cl)cc2)CC1 [Compound 121, methyl 3-(4-((2S,5S)-5-(4-chlorobenzyl)-2-methylmorpholino)piperidin-1-yl)-2-fluoroisonicotinate] | > 10 µM
CC(C)C1OC[C@H](Cc2ccc(Cl)cc2)N1C1CCN(c2ccccn2)CC1 (stereo partly drawn) [Compound 150, (4S)-4-(4-chlorobenzyl)-2-isopropyl-3-(1-(pyridin-2-yl)piperidin-4-yl)oxazolidine hydrochloride] | > 10 µM

Reference: patent US12325701B2, “YKL-40 inhibitors and their therapeutic” (Molecure S.A., priority 2022, dated 2025)
